For one sequence, Fold change results are on record in publication PMC8458281, “Computational modeling and experimental validation of the EPI-X4/CXCR4 complex allows rational design of small peptide antagonists” (Communications Biology, 2021).

What all share (format): binding, human
In one assay the test system is CXCR4 E288D. In words: 12G5 antibody competition, 293T cells transfected with CXCR4 E288D. The conditions noted are these: IC50 on CXCR4 E288D relative to wt. The text has this:
The human CXCR4 gene (isoform 1 or b, NCBI Reference Sequence: NP_003458.1, UniProtKB/Swiss-Prot: P61073-1) was amplified by PCR of the pTrip_GFP_CXCR4 vector (kindly provided by Prof. Françoise Bachelerie, Paris, France) by generating the flanking single cutter sites NheI and HindIII. The PCR fragment was ligated in the empty pcDNA3.1(+) vector (Life Technologies GmbH, Darmstadt). Afterward, the IRES-eGFP cassette of the proviral clone pBR_NL4-3_IRES-eGFP[44] was PCR-amplified with EcoRI and NotI single cutter sites and ligated in the multiple cloning site after CXCR4. […]
To test for peptide interaction with CXCR4, 50,000 SupT1 cells were seeded in 96-well microtiter plates in PBS supplemented with 1% FCS, the buffer was removed and cells were precooled at 4 °C. […] Afterward, the unbound antibody was removed and cells analyzed by flow cytometry. The mean fluorescence intensity (MFI) was normalized to the PBS control. […] IC50 values were determined by nonlinear regression using GraphPad Prism. […] For analysis, after flow cytometry, eGFP expressing cells were gated and further analyzed. CXCR4 expression levels and antibody binding to CXCR4 was determined using the CXCR4 antibody clones 12G5 (binds to the second ECL loop) (#555976, BD PharmingenTM) and 1D9 (binds to the N-terminus) (#551510, BD PharmingenTM) (Supplement Figure S5). […]

A further assay deals with CXCR4 D97E + V112L. In words: 12G5 antibody competition, 293T cells transfected with CXCR4 D97E + V112L. Particulars: IC50 on CXCR4 D97E + V112L relative to wt. As to the method: (§1) Fig. 4 The interactions of EPI-X4 and the EPI-X4 derivatives WSC02 and JM#21 with point-mutated CXCR4 were assessed by an antibody competition assay. Amino acid substitutions were introduced in the sequence of CXCR4 by site-directed mutagenesis, cloned into an IRES-eGFP expression vector, and transfected into 293 T cells. Afterward, cells were incubated with serially diluted EPI-X4 (a, b), WSC02 (c, d), or JM#21 (e, f) in presence of a constant concentration of CXCR4 specific antibody (clone 12G5). After 2 h, bound antibody was analyzed by flow cytometry. a, c, e) Representative dose-dependent replacement of 12G5 antibody by peptides. b, d, f) IC50 values were calculated by nonlinear regression. Shown are data derived from at least three individual experiments ± SEM. IC50 values were set to 1000 µM (EPI-X4 and WSC02) or 100 µM (JM#21) if the value exceeds the maximally used concentration. *p ≤ 0.05, ***p ≤ 0.001 (one-way ANOVA for comparison with wt). For IC50 values see Table 1. For all binding curves see also Fig. S8.
(§2) Mutated CXCR4 constructs were transfected into 293 T cells that have a very low endogenous expression level of wild-type CXCR4. Transfected cells were then analyzed for CXCR4 surface expression (Fig. S5a) and EPI-X4 binding using a flow cytometry-based antibody competition assay (Fig. S5b, c)[33]. […]

The subject of the next assay is CXCR4 D97E + V112A. In words: 12G5 antibody competition, 293T cells transfected with CXCR4 D97E + V112A. Particulars: IC50 on CXCR4 D97E + V112A relative to wt. As to the method: as §1, §2

Take “IVRWSKKVPCVS [WSC02, first-generation C-terminally truncated 12-mer derivative of EPI-X4 with four substitutions]”: the Fold change was 74 in the assay with CXCR4 E288D, 1.8 in the assay on CXCR4 D97E + V112L and 1.5 in the assay with CXCR4 D97E + V112A.
